In ChEMBL document CHEMBL1141924 (Bioorg Med Chem Lett, 2005):

Molecular target: Carbonic anhydrase V (Homo sapiens, UniProt Q9Y2D0+P35218)

Ki: 25.4 nM
SMILES: CC1(C)O[C@@H]2[C@@H](CO[C@@]3(COS(N)(=O)=O)OC(C)(C)O[C@@H]23)O1 [TOPIRAMATE]
